# Paper PMC6470523, “Introduction of Nonacidic Side Chains on 6-Ethylcholane Scaffolds in the Identification of Potent Bile Acid Receptor Agonists with Improved Pharmacokinetic Properties” (Molecules, 2019)
# Columns and labels:
# SHP mRNA in HepG2 cells = assay: RT-PCR of FXR target gene SHP mRNA in HepG2 cells; assay type: cell-based, human; conditions: 1 and 10 µM, 18 h, vs CDCA 10 µM, Figure 2B
# Description: (§1) HepG2 and GLUTag cells were plated at 1 × 10^6 cells/well in a six well plate. […] Total RNA was isolated from cells using the TRIzol reagent according to the manufacturer's specifications (Invitrogen, Carlsbad, CA, USA). One microgram of purified RNA was treated with DNase-I and reverse transcribed with Superscript II (Invitrogen, Carlsbad, CA, USA). For Real Time PCR, 10 ng template was dissolved in 25 μL containing 200 nmol/L of each primer and 12.5 μL of 2× SYBR FAST Universal ready mix (Invitrogen, Carlsbad, CA, USA). All reactions were performed in triplicate, and the thermal cycling conditions were as follows: 2 min at 95 °C, followed by 40 cycles of 95 °C for 20 s and 60 °C for 30 s in StepOnePlus (Applied Biosystems, Foster City, CA, USA). The relative mRNA expression was calculated accordingly to the Ct method. Primers were designed using the software PRIMER31 using published data obtained from the NCBI database. Forward and reverse primer sequences were the following: human GAPDH, [NT]; human SHP, [NT]; mouse GAPDH, [NT]; mouse pro-glucagon, [NT]
# human FXR = molecular target: T1, human FXR (Homo sapiens, UniProt Q96RI1); assay: FXR transactivation luciferase reporter assay in HepG2 cells; assay type: cell-based; conditions: HepG2 cells
# T1 construct: expressed in transfected cells; host or cells: HepG2
# T1 sequence (Q96RI1 1-486): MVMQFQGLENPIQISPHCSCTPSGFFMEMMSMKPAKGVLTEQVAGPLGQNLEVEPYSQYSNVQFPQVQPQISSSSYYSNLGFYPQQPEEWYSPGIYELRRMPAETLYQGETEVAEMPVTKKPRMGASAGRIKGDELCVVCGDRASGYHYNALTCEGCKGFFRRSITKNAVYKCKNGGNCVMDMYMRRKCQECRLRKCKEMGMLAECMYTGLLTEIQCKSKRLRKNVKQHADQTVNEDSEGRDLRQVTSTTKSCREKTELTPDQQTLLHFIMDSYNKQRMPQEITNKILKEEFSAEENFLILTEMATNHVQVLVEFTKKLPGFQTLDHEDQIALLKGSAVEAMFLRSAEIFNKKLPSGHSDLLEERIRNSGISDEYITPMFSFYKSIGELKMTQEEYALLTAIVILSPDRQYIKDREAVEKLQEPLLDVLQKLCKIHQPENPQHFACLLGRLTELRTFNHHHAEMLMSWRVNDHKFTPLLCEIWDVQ
# T1 sequence (P19793 1-462 partner): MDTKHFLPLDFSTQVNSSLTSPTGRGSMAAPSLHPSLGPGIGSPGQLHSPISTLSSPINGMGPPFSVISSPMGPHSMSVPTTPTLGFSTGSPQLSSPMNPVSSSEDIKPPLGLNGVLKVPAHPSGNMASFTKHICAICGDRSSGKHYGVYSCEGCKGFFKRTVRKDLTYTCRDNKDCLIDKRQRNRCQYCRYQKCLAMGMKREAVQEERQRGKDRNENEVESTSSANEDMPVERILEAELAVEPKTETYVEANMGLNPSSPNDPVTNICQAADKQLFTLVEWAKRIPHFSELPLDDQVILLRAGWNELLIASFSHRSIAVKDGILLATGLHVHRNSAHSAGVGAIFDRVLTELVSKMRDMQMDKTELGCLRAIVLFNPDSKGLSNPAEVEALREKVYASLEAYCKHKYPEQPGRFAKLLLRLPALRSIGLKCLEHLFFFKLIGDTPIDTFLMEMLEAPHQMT
# Description: (§2) To evaluate FXR mediated transactivation, HepG2 cells were transfected with 100 ng of human pSG5-FXR, 100 ng of human pSG5-RXR, 200 ng of the reporter vector p(hsp27)-TK-LUC containing the FXR response element IR1 cloned from the promoter of heat shock protein 27 (hsp27) and with 100 ng of pGL4.70 (Promega), a vector encoding the human Renilla gene. To evaluate GPBAR1 mediated transactivation, HEK293T cells were transfected with 200 ng of human pGL4.29 (Promega), a reporter vector containing a cAMP response element (CRE) that drives the transcription of the luciferase reporter gene luc2P, with 100 ng of pCMVSPORT6-human GPBAR1, and with 100 ng of pGL4.70. […] After treatments, 10 μL of cellular lysates were read using a Dual-Luciferase Reporter Assay System (Promega Italia srl, Milan, Italy) according manufacturer specifications using the Glomax20/20 luminometer (Promega Italia srl, Milan, Italy). Luciferase activities were assayed and normalized with Renilla activities.
# (§3) At 18 h post stimulations, cellular lysates were assayed for luciferase and Renilla activities using the Dual-Luciferase Reporter Assay System (E1980, Promega Italia srl, Milan, Italy). Luminescence was measured using Glomax 20/20 luminometer (Promega Iralia srl, Milan, Italy). Luciferase activities were normalized with Renilla activities.
# [1] = test system: pro-glucagon mRNA in GLUTag cells; assay: RT-PCR of GPBAR1 target gene pro-glucagon mRNA in GLUTag cells; assay type: cell-based, murine; conditions: 1 and 10 µM, 18 h, Figure 2A
# Description: as §1
# human GPBAR1 = molecular target: T2, human GPBAR1 (Homo sapiens, UniProt Q8TDU6); assay: GPBAR1 transactivation (CRE luciferase reporter) assay in HEK293T cells; assay type: cell-based
# T2 construct: expressed in transfected cells; host or cells: HEK293T
# T2 sequence (Q8TDU6 1-330): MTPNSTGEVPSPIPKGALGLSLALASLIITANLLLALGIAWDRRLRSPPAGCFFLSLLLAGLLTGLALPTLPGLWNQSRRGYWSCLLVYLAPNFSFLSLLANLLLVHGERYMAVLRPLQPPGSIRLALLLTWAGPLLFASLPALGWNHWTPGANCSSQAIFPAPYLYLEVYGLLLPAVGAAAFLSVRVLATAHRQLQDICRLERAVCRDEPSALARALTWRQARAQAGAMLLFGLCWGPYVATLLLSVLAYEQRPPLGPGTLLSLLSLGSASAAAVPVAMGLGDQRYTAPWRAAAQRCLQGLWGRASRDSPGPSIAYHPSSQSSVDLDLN
# Description: as §2, §3
structure (smiles),measurement,setting,value
"CCC1C(O)C2C3CCC(C(C)CO)C3(C)CCC2C2(C)CCCCC12 (stereo not drawn) [compound 6, 6α-Ethyl-7α-hydroxy-23,24-dinor-5β-cholan-22-ol]",SHP mRNA expression (in words),SHP mRNA in HepG2 cells,more potent than CDCA
same,EC50,"human FXR; dose response 0.5 to 50 µM, 18 h",13.7 ± 2.05 µM
same,FXR Eff (%) vs 6-ECDCA,"human FXR; maximum efficacy of compound (10 µM) relative to 6-ECDCA (1 µM) set as 100%, FRE transactivation",33.4%
same,FXR Eff (%) vs CDCA,"human FXR; maximum efficacy of compound (10 µM) relative to CDCA (10 μM) set as 100%, FRE transactivation",185%
same,pro-glucagon mRNA expression (in words),[1],failed to regulate
same,GPBAR1 Eff (%) vs 6-ECDCA,"human GPBAR1; maximum efficacy of compound (10 µM) relative to 6-ECDCA (1 µM) set as 100, CRE transactivation",87.5%
same,GPBAR1 Eff (%) vs TLCA,"human GPBAR1; maximum efficacy of compound (10 µM) relative to TLCA (10 μM) set as 100, CRE transactivation",19%
